Patent US8609858B2, “Spiro derivatives of parthenin as novel anticancer agents” (Council of Scientific & Industrial Research, priority 2008, dated 2013)

Tests used:
SW-620 = experiment: In vitro cytotoxicity screening (sulphodamine B dye), SW-620; format: cell-based; settings: Homo sapiens; SW-620 colon cancer cell line
Experimental: (§1) Cells at sub confluent stage were harvested from the flask by treatment with trypsin (0.5% in PBS containing 0.02% EDTA) for determination of cytotoxicity. […] The cell suspensions of required cell density were prepared in complete growth medium with gentamycin (50 μg/ml) for determination of cytotoxicity. The cells (100 μl/well) were inoculated in 96 well tissue culture plates. The cells were allowed to grow for 24 hrs temperature of 37° C. and in a humidified atmosphere of 5% CO2 in air. Stock solution of (20 mM) of test material was prepared in DMSO. The stock solution was serially diluted with complete growth medium containing 50 μg/ml of gentamycin to obtain […] working test solutions of 1., 2, 5, 10, 50 and 100 μM.
(§2) The media were supplemented with FCS (10%), penicillin (100 Units/ml), streptomycin (100 μg/ml) and glutamine (2 mM) and cells were grown in CO2 incubator (Hera cell, Heraeus, USA) at 37° C. with 90% humidity and 5% CO2.

PC-3 = experiment: In vitro cytotoxicity screening (sulphodamine B dye), PC-3; format: cell-based; settings: Homo sapiens; PC-3 prostate cancer cell line
Experimental: as §1, §2

DU-145 = experiment: In vitro cytotoxicity screening (sulphodamine B dye), DU-145; format: cell-based; settings: Homo sapiens; DU-145 prostate cancer cell line
Experimental: as §1, §2

Compound	melting point	IC50 (SW-620)	IC50 (PC-3)	IC50 (DU-145)
C[C@H]1CC[C@@H]2[C@@H](OC(=O)C23CN3c2ccccc2[N+](=O)[O-])[C@]2(C)C(=O)C=C[C@]12O (some centres unmarked) [Compound -39]	222 to 224 °C	33 µM	10 µM	28 µM
C[C@H]1CC[C@@H]2[C@@H](OC(=O)C23CC(c2ccc(C#N)cc2)=NO3)[C@]2(C)C(=O)C=C[C@@]12O (some centres unmarked) [Compound -16]	147 °C	53 µM	32 µM	26 µM
Cc1cccc(N2CC23C(=O)O[C@@H]2[C@H]3CC[C@H](C)[C@@]3(O)C=CC(=O)[C@@]23C)c1 (some centres unmarked) [Compound -38]	–	15 µM	61.5 µM	62.5 µM
C[C@H]1CC[C@@H]2[C@@H](OC(=O)C23CC(c2cccs2)=NO3)[C@]2(C)C(=O)C=C[C@@]12O (some centres unmarked) [Compound -12]	–	34 µM	29 µM	19 µM
C[C@H]1CC[C@@H]2[C@@H](OC(=O)C23CC(c2ccc(N(C)C)cc2)=NO3)[C@]2(C)C(=O)C=C[C@@]12O (some centres unmarked) [Compound -4]	–	–	6.33 µM	–
Cc1cccc(C2=NOC3(C2)C(=O)OC2C3CC[C@H](C)[C@]3(O)C=CC(=O)[C@@]23C)c1 (some centres unmarked) [Compound -14]	–	–	66.6 µM	–
C[C@H]1CC[C@@H]2[C@@H](OC(=O)C23CC(c2ccc(O)cc2)=NO3)[C@]2(C)C(=O)C=C[C@@]12O (some centres unmarked) [Compound -5]	129.2 °C	89 µM	–	93 µM
C[C@H]1CC[C@@H]2[C@@H](OC(=O)C23CN3c2cccc([N+](=O)[O-])c2)[C@]2(C)C(=O)C=C[C@@]12O (some centres unmarked) [Compound -40]	241 to 242 °C	61 µM	10.1 µM	–
COc1ccc(C2=NOC3(C2)C(=O)O[C@@H]2[C@H]3CC[C@H](C)[C@]3(O)C=CC(=O)[C@@]23C)cc1 (some centres unmarked) [Compound -1]	–	41 µM	35 µM	20 µM
COc1ccccc1N1CC12C(=O)O[C@@H]1[C@H]2CC[C@H](C)[C@]2(O)C=CC(=O)[C@@]12C (some centres unmarked) [Compound -37]	–	47.3 µM	52 µM	–
C[C@H]1CC[C@@H]2[C@@H](OC(=O)C23CC(c2cccc([N+](=O)[O-])c2)=NO3)[C@]2(C)C(=O)C=C[C@@]12O (some centres unmarked) [Compound -11]	–	49 µM	55 µM	51 µM
Cc1ccccc1N1CC12C(=O)O[C@@H]1[C@H]2CC[C@H](C)[C@]2(O)C=CC(=O)[C@@]12C (some centres unmarked) [Compound -43]	–	22 µM	12.5 µM	–
C[C@H]1CC[C@@H]2[C@@H](OC(=O)C23CN3c2ccccc2)[C@]2(C)C(=O)C=C[C@@]12O (some centres unmarked) [Compound -34]	245 to 247 °C	87.7 µM	10.6 µM	31.4 µM
C[C@H]1CC[C@@H]2[C@@H](OC(=O)C23CN3c2cccc(Cl)c2)[C@]2(C)C(=O)C=C[C@@]12O (some centres unmarked) [Compound -35]	–	48.4 µM	86.1 µM	39.5 µM
Cc1ccc(N2CC23C(=O)O[C@@H]2[C@H]3CC[C@H](C)[C@]3(O)C=CC(=O)[C@@]23C)cc1 (some centres unmarked)	241 to 242 °C	–	–	–

Second part, led by results:

melting point	Compound	IC50 (SW-620)	IC50 (PC-3)	IC50 (DU-145)
114 °C	Cc1ccc(C2CC3(ON2c2ccccc2)C(=O)O[C@@H]2[C@H]3CC[C@H](C)[C@]3(O)C=CC(=O)[C@@]23C)cc1 (some centres unmarked) [Compound -21]	8.7 µM	8.5 µM	8.1 µM
170 °C	C[C@H]1CC[C@@H]2[C@@H](OC(=O)C23CC(c2ccccc2)N(c2ccccc2)O3)[C@]2(C)C(=O)C=C[C@@]12O (some centres unmarked) [Compound -23]	5.8 µM	5.7 µM	5.6 µM
181 °C	Cc1ccccc1C1CC2(ON1c1ccccc1)C(=O)O[C@@H]1[C@H]2CC[C@H](C)[C@]2(O)C=CC(=O)[C@@]12C (some centres unmarked) [Compound -19]	6 µM	6.4 µM	5.6 µM
108 °C	Cc1cc(C2CC3(ON2c2ccccc2)C(=O)O[C@@H]2[C@H]3CC[C@H](C)[C@]3(O)C=CC(=O)[C@@]23C)cc(C)c1O (some centres unmarked) [Compound -30]	–	–	–
99 °C	COc1ccc(C2CC3(ON2c2ccccc2)C(=O)O[C@@H]2[C@H]3CC[C@H](C)[C@]3(O)C=CC(=O)[C@@]23C)c(OC)c1 (some centres unmarked) [Compound -28]	7.5 µM	11 µM	11 µM
183 °C	C[C@H]1CC[C@@H]2[C@@H](OC(=O)C23CC(c2ccc(Cl)cc2)N(c2ccccc2)O3)[C@]2(C)C(=O)C=C[C@@]12O (some centres unmarked) [Compound -18]	7.5 µM	7.8 µM	7 µM
158 °C	C[C@H]1CC[C@@H]2[C@@H](OC(=O)C23CC(c2ccccc2[N+](=O)[O-])C(c2ccccc2)O3)[C@]2(C)C(=O)C=C[C@@]12O (some centres unmarked) [Compound -32]	13 µM	8.4 µM	28 µM
138.2 °C	C[C@H]1CC[C@@H]2[C@@H](OC(=O)C23CC(c2ccc(Cl)cc2)=NO3)[C@]2(C)C(=O)C=C[C@@]12O (some centres unmarked) [Compound -2]	51 µM	49 µM	43 µM
197 °C	COc1ccc(Br)cc1C1CC2(ON1c1ccccc1)C(=O)O[C@@H]1[C@H]2CC[C@H](C)[C@]2(O)C=CC(=O)[C@@]12C (some centres unmarked) [Compound -27]	6.1 µM	8.2 µM	7.8 µM
116 °C	C[C@H]1CC[C@@H]2[C@@H](OC(=O)C23CC(c2ccc(C#N)cc2)N(c2ccccc2)O3)[C@]2(C)C(=O)C=C[C@@]12O (some centres unmarked) [Compound -26]	4.8 µM	4.8 µM	5 µM
111 °C	COc1ccccc1C1CC2(ON1c1ccccc1)C(=O)O[C@@H]1[C@H]2CC[C@H](C)[C@]2(O)C=CC(=O)[C@@]12C (some centres unmarked) [Compound -33]	53 µM	81 µM	91 µM
154 °C	C[C@H]1CC[C@@H]2[C@@H](OC(=O)C23CC(c2ccc(F)cc2)N(c2ccccc2)O3)[C@]2(C)C(=O)C=C[C@@]12O (some centres unmarked) [Compound -24]	7.3 µM	5.7 µM	6.4 µM
193 °C	C[C@H]1CC[C@@H]2[C@@H](OC(=O)C23CC(c2ccc(F)cc2)=NO3)[C@]2(C)C(=O)C=C[C@@]12O (some centres unmarked) [Compound -15]	3.6 µM	27 µM	13 µM
245 to 247 °C	COc1ccc(N2CC23C(=O)O[C@@H]2[C@H]3CC[C@H](C)[C@]3(O)C=CC(=O)[C@@]23C)cc1 (some centres unmarked)	–	–	–
151 °C	COc1ccc(C2=NOC3(C2)C(=O)O[C@@H]2[C@H]3CC[C@H](C)[C@]3(O)C=CC(=O)[C@@]23C)cc1OC (some centres unmarked) [Compound -80]	86 µM	–	84 µM
119 °C	COc1cc(C2CC3(ON2c2ccccc2)C(=O)O[C@@H]2[C@H]3CC[C@H](C)[C@]3(O)C=CC(=O)[C@@]23C)cc(OC)c1OC (some centres unmarked) [Compound -29]	5.7 µM	8.6 µM	5.6 µM
277 °C	Cc1ccccc1C1=NOC2(C1)C(=O)O[C@@H]1[C@H]2CC[C@H](C)[C@]2(O)C=CC(=O)[C@@]12C (some centres unmarked) [Compound -13]	5 µM	10 µM	12 µM
